Experimental data reported in publication PMC11676667, “Pharmacokinetics of Oral Cannabinoid Δ8-Tetrahydrocannabivarin and Its Main Metabolites in Healthy Participants” (Pharmaceuticals, 2024).

Experiment: Plasma pharmacokinetics after single oral dose of Δ8-THCV in MCT oil (LC-MS/MS, non-compartmental analysis)
Assay type: in vivo, human
Details: of 504 plasma samples from 15 participants after oral Δ8-THCV
Procedure: The study was a two-phase, dose-ranging, placebo-controlled trial in 21 healthy participants to assess the safety, tolerability, PK, and PD of an oral formulation of Δ8-THCV. A detailed description of the study was published elsewhere. The study product was a medium-chain triglyceride (MCT) oil oral formulation of Δ8-THCV at a concentration of 50 mg/mL. […] MCT oil was used as placebo.
Twenty-one participants were enrolled in the clinical study and plasma samples from 15 participants were sent to our laboratory for pharmacokinetic evaluation. Of these, 3 participants were enrolled in Phase 1, an unblinded, placebo-controlled, single ascending dose design and 12 were enrolled in Phase 2, a double-blind, randomized, placebo-controlled, within-participant crossover design. At each study session, participants received one of the following oral doses: placebo, 12.5 mg, 25 mg, 50 mg, 100 mg, and 200 mg of the aforementioned Δ8-THCV formulation in MCT. Study visits were separated by a washout period of a minimum of one week and maximum of 28 days. Participants entered the research facility the night before the session and received the study product in the morning after a standardized high-fat, high-calorie breakfast. PK blood samples included in this analysis were collected prior to dosing and 0.5, 1, 2, 4, 6, and 8 h after dose. Immediately following collection into K2EDTA tubes, blood samples were placed on wet ice, centrifuged, and plasma was immediately frozen at −80 °C until shipment to the bioanalytical laboratory (iC42 Clinical Research and Development, University of Colorado, Aurora, CO, USA) on dry ice.
Plasma samples were analyzed using a validated high-performance liquid chromatography–tandem mass spectrometry (LC-MS/MS) assay. The assay included Δ8-THCV and its main metabolites 11-OH-Δ8-THCV and Δ8-THCV-COOH, Δ9-THCV and its main metabolite Δ9-THCV-COOH, and Δ9-THC and Δ8-THC as well as their main metabolites (Figure 3). The complete list of analyzed compounds and a summary of the key performance parameters of the assay are presented in Appendix A and Table A1 and Table A2. […] For the PK analysis, concentrations below the lower limit of quantification were set to 0 ng/mL. PK parameters were calculated using non-compartmental analysis (Phoenix WinNonlin version 8.4., Certara, Princeton, NJ, USA). Statistical analysis was carried out using GraphPad Prism (version 10, Boston, MA, USA).

Row | Structure (SMILES) | number of positive plasma samples
1 | CCCCCc1cc(O)c2c(c1)OC(C)(C)[C@@H]1CC=C(C)CC21 (some centres unmarked) [Δ8-THC, Δ8-tetrahydrocannabinol, reference compound] | No positive samples
2 | CCCCCc1cc(O)c2c(c1)OC(C)(C)[C@@H]1CCC(C)=CC21 (some centres unmarked) [Δ9-THC, Δ9-tetrahydrocannabinol, reference compound] | No positive samples
